Test results taken from US20070110901A1, “Method for identifying weakly binding molecule fragments having ligand properties, whereby the molecule fragments are applied in the form of microdrops of a corresponding solution to the crystal” (Proteros Biostructures GMBH, priority 2003, published 2007).

Key:
[1] = test system: DPIV (dipeptidyl peptidase IV); assay: X-ray crystallography of DPIV crystal treated with inhibitor (FIG. 5); format: binding; settings: active center of DPIV around Ser630; 2F0-F0 density outlined at 1σ
Source text: Oxygen atoms are depicted in red, nitrogen atoms in blue, and carbon atoms in gray. Additionally, the inhibitor as well as Ser630, which is covalently coupled to the inhibitor, is overlaid by its 2F0-F0 electron density (outlined at 1σ). The inhibitor is clearly defined concerning its electron density (FIG. 5).
From the used tripeptide having the sequence Ile-Pro-Ile, the C-terminal isoleucine is cleaved off while the dipeptide remains covalently linked with Ser630 and is not cleaved off.
The target enzyme was DPIV (dipeptidyl peptidase IV). Different fragments were solved in a cocktail together. In a cocktail (i), molecules of two different molecule species were combined, i.e. a mimetic (altered peptide backbone (vinyl derivative) of the N-terminal dipeptide of a substrate of the DPIV (having a free N-terminus) and, on the other hand, a mimetic (also a dipeptide with acetylated, blocked N-terminus, also. as. framework mimetic—vinyl derivative). In a second cocktail (ii), five different molecule species (which differed concerning both side chains of the two dipeptide mimetics) from each of the two mimetic classes, i.e. 10 molecule species altogether, were combined in a cocktail.

thrombin = assay: X-ray crystallography of freely mounted crystal after dripping on picoliter drops (FIG. 4); format: binding; settings: active center of thrombin around Ser195; 2F0-F0 density outlined at 1σ
Source text: FIG. 4: The covalently bound inhibitor as well as individual amino acids in the environment of the active center of the thrombin around Ser195 are depicted in the form of a stick model. Oxygen atoms are depicted in red, sulfur atoms in yellow, nitrogen atoms in blue, and carbon atoms in gray. Additionally, the inhibitor is overlaid by its 2F0-F0 electron density (outlined at 1σ). The inhibitor is clearly defined concerning its electron density.
Thereby, evidence has been offered that the approach of dripping picoliter drops onto a protein crystal by use of the free mounting system works.

Row | Compound | binding mode seen in electron density [1] | binding seen in experimentally determined electron density (thrombin)
1 | diprotin A | rather acts as a suicide substrate than as an inhibitor | 
2 | O=S(=O)(F)Cc1ccccc1 [PMSF, phenylmethylsulfonyl fluoride] |  | covalent bond of the PMSF at Ser195
